According to patent US20090203585A1, “CAPREOMYCIN DERIVATIVES AND THEIR USE AS ANTIBACTERIALS” (priority 2006, published 2009):

Key:
[1] = tested on: MRSA (Methicillin resistant Staphylococcus aureus, ATCC33591); assay: MIC determination in MRSA; type: cell-based
Method: Cation Adjusted Mueller Hinton Broth (Teknova #M5860); MRSA (Methicillin resistant Staphylococcus aureus, ATCC33591). Test compounds: all compounds were dissolved in PBS at 10 mg/mL and stored at −20° C.
The method used for determination of MIC's follows the procedure described by the Clinical Laboratory Standards Institute (CLSI). A standardized inoculum of MRSA was prepared per CLSI methods yielding a final cell concentration of 5×10 (5) CFU/mL. 10× compound dilutions were prepared by performing 2 fold serial dilutions in Cation Adjusted Mueller Hinton Broth. The starting and ending concentrations were 640 μg/mL and 1.25 μg/mL, respectively for final assay concentrations of 64 µg/mL and 0.125 μg/mL. 10 μL of the 10× compound dilutions were added to 90 μL of the MRSA cell suspension in microplate wells. Plates were incubated in a 35° C. incubator for approximately 20 hours.

[2] = tested on: Clostridium difficile; assay: Activity against Clostridium difficile; type: cell-based; settings: relative to corresponding capreomycin IB phenyl urea analog
[3] = tested on: mycobacteria; settings: cited from earlier work
[4] = tested on: other genera of bacteria (Gram-positive, Gram-negative); settings: cited from earlier work

Row | Compound | activity against MRSA [1] | fold more active against Clostridium difficile than the corresponding capreomycin IB phenyl urea analogs [2] | activity against mycobacteria [3] | activity against other genera of bacteria [4] | efficacy against most Gram-positive bacteria (Staphylococcus) or Gram-negative bacteria (Escherichia coli) [4]
1 | C[C@@H]1NC(=O)[C@@H](N)CNC(=O)[C@H](C2CCNC(=N)N2)NC(=O)/C(=C/NC(=O)Nc2cccc(-c3ccccc3)c2)NC(=O)[C@H](CN)NC1=O (some centres unmarked) [Compound 73] | active | 4 fold | – | – | –
2 | Capreomycin | – | – | potent activity | little activity | not efficacious
